Experiments:
Abl1 = assay: Kinase activity at ATP Km,app, Abl1; type: biochemical, mouse; details: compound 2 μM
Experimental: (§1) Abl Kinase activity: In a final reaction volume of 25 μL, Able (m) (5-10 mU) is incubated with […] pH 7.0, 0.2 mM EDTA, 50 μM EAIYAAPFAKKK, 10 mM MgAcetate and [γ-^33P-ATP] (specific activity approx. 500 cpm/pmol, concentration as required). The reaction is initiated by the addition of the MgATP mix. After incubation for 40 minutes at room temperature, the reaction is stopped by the addition of 5 μL of a 3% phosphoric acid solution. 10 μL of the reaction is then spotted onto a P30 filtermat and washed three times for 5 minutes in 75 mM phosphoric acid and once in methanol prior to drying and scintillation counting.

CK2-alpha 1 = CK2-alpha 1 (Homo sapiens, UniProt P68400); assay: Kinase activity at ATP Km,app, CK2-alpha 1; type: biochemical; details: compound 2 μM
ERK2 = ERK2 (Homo sapiens, UniProt P28482); assay: Kinase activity at ATP Km,app, ERK2; type: biochemical; details: compound 2 μM
FGFR1 = FGFR1 (Homo sapiens, UniProt P11362); assay: Kinase activity at ATP Km,app, FGFR1; type: biochemical; details: compound 2 μM
Flt3 = target: T1, Flt3 (Homo sapiens, UniProt P36888); assay: Kinase activity at ATP Km,app, Flt3; type: biochemical; details: 40 min, compound 2 μM
T1 sequence (P36888 27-993): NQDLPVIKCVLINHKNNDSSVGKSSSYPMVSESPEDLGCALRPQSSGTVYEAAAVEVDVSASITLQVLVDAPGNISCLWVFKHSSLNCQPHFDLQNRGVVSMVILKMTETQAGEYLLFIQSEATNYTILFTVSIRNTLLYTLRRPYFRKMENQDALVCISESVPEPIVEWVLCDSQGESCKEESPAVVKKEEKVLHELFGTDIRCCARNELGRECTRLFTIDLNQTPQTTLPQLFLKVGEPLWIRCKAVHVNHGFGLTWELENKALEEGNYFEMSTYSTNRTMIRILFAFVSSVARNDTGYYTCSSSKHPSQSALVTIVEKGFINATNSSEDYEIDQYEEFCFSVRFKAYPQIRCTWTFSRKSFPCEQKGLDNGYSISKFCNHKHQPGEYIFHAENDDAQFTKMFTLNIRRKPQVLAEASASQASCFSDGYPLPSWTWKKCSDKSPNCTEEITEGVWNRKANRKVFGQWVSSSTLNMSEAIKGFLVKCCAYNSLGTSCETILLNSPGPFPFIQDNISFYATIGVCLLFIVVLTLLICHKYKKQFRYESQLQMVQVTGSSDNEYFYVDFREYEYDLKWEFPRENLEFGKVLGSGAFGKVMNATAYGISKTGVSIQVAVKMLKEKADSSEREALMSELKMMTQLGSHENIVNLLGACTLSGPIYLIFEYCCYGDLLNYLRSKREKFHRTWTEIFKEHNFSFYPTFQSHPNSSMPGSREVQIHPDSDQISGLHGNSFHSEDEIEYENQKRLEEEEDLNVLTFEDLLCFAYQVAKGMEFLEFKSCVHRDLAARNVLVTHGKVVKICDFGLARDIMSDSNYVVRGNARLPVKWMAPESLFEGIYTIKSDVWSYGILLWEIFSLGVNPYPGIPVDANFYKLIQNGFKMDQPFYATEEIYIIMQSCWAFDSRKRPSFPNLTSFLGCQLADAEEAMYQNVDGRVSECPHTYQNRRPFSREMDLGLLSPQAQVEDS
Experimental: as §1, with “Flt3” for “Abl”, “Activity:” for “activity:”, “μl, Flt3 (h)” for “μL, Able (m)”, “with 8” for “with”, “[…]” for “μL”

GSK3-beta = GSK3-beta (Homo sapiens, UniProt P49841); assay: Kinase activity at ATP Km,app, GSK3-beta; type: biochemical; details: 40 min, compound 2 μM
Experimental: GSK3β Kinase Activity: In a final reaction volume of 25 μl, GSK3β (h) (5-10 mU) is incubated with […] MOPS pH 7.0, 0.2 mM EDTA, […](p)EDEEE (phosphor GS2 peptide), 10 mM MgAcetate and [γ-^33P-ATP] (specific activity approx. 500 cpm/pmol, concentration as required). The reaction is initiated by the addition of the MgATP mix. After incubation for 40 minutes at room temperature, the reaction is stopped by the addition of 5 μl of a 3% phosphoric acid solution. 10 μl of the reaction is then spotted onto a P30 filtermat and washed three times for 5 minutes in 50 mM phosphoric acid and once in methanol prior to drying and scintillation counting.

PKA = PKA (Bos taurus, UniProt P00517); assay: Kinase activity at ATP Km,app, PKA; type: biochemical, bovine; details: 40 min, compound 2 μM
Experimental: PKA Kinase Activity: In a final reaction volume of 25 μl, PKA (b) (5-10 mU) is incubated with 8 mM MOPS pH 7.0, 0.2 mM EDTA, 30 μM LRRASLG (Kemptide), 10 mM MgAcetate and [γ-^33P-ATP] (specific activity approx. 500 cpm/pmol, concentration as required). The reaction is initiated by the addition of the MgATP mix. After incubation for 40 minutes at room temperature, the reaction is stopped by the addition of 5 μl of a 3% phosphoric acid solution. 10 μl of the reaction is the spotted onto a P30 filtermat and washed three times for 5 minutes in 50 mM phosphoric acid and once in methanol prior to drying and scintillation counting.

Src = Src (Homo sapiens, UniProt P12931); assay: Kinase activity at ATP Km,app, Src; type: biochemical; details: 40 min, compound 2 μM
Experimental: cSRC Kinase Activity: In a final reaction volume of 25 μl, cSRC (h) (5-'0 mU) is incubated with 8 mM MOPS pH 7.0, 0.2 mM EDTA, 250 μM KVEKIGEGTYGVVYK (Cdc2 peptide), 10 mM MgAcetate and [γ-^33P-ATP] (specific activity approx. 500 cpm/pmol, concentratin as required). The reaction is initiated by the addition of the MgATP mix. After incubation for 40 minutes at room temperature, the reaction is stopped by the addition of 5 μl of a 3% phosphoric acid solution. 10 μl of the reaction is then spotted onto a P30 filtermat and washed three times for 5 minutes in 75 mM phosphoric acid and once in methanol prior to drying and scintillation counting.

Chain of FGFR1 (P11362 22-822, species assumed): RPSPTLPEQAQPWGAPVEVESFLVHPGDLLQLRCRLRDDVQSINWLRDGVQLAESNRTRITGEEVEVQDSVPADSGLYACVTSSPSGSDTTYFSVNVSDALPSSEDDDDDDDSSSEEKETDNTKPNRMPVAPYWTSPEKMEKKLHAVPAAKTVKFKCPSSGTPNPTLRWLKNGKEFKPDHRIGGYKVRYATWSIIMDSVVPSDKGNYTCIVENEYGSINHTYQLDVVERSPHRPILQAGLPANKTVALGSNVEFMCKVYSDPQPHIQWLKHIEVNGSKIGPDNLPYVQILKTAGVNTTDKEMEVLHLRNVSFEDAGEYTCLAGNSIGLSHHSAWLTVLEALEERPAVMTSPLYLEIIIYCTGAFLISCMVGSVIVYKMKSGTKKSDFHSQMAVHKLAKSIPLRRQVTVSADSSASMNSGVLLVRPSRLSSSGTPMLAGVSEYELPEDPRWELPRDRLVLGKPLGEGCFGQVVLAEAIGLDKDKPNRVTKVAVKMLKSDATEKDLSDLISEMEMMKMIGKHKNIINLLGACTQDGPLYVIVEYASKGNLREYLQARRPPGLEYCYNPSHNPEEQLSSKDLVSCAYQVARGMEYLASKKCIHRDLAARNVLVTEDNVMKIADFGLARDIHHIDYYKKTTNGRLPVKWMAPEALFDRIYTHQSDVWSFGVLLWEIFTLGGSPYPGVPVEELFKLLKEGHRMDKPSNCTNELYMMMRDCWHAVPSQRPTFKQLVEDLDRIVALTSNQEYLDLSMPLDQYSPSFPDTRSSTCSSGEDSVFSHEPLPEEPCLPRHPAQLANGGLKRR
Chain of ERK2 (P28482 whole entry, species assumed): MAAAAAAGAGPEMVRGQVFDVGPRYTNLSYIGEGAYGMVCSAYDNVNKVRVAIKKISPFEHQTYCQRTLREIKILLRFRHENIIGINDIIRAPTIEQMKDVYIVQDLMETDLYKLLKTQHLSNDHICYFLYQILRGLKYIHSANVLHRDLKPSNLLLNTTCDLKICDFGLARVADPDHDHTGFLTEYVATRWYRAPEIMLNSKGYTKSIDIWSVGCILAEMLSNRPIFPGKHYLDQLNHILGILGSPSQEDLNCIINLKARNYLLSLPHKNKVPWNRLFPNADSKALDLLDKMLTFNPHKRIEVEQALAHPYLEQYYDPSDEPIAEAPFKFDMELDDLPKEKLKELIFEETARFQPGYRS
Chain of CK2-alpha 1 (P68400 whole entry): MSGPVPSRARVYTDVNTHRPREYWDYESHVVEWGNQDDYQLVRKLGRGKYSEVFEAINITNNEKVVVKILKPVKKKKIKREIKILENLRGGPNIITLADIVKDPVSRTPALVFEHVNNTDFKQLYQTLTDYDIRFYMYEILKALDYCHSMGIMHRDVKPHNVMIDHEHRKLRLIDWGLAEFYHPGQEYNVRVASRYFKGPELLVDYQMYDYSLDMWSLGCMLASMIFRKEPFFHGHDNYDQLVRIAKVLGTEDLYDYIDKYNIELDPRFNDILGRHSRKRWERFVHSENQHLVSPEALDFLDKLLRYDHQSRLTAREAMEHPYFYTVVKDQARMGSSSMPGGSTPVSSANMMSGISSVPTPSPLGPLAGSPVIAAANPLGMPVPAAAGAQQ
Chain of GSK3-beta (P49841 whole entry): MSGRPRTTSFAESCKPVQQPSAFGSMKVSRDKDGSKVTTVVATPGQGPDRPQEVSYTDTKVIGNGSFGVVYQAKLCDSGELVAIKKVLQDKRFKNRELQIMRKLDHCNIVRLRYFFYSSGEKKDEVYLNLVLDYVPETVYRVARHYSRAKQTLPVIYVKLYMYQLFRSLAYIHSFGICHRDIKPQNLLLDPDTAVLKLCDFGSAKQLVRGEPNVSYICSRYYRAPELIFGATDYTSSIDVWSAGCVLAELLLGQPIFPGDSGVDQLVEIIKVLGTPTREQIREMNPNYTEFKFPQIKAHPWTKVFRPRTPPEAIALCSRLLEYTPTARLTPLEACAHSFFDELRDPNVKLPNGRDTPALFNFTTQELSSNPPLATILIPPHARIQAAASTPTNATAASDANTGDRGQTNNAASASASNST
Chain of Src (P12931 whole entry): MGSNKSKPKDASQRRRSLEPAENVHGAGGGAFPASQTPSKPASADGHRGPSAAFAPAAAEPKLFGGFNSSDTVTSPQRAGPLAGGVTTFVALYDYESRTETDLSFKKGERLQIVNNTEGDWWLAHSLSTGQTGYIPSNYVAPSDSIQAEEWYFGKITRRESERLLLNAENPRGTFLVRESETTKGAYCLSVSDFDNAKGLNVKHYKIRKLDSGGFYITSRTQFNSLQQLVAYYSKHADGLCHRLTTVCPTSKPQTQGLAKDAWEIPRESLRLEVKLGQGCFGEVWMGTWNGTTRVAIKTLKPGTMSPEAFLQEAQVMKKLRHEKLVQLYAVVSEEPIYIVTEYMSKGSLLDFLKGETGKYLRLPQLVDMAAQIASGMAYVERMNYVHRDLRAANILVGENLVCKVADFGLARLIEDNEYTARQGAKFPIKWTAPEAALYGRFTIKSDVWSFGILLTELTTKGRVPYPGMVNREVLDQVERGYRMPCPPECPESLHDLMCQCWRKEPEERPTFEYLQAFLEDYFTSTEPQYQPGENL

% Inhibition at ATP Km,app (Abl1) | inhibition at 2 µM (CK2-alpha 1) [%] | inhibition at 2 µM (ERK2) [%] | inhibition at 2 µM (FGFR1) [%] | inhibition at 2 µM (Flt3) [%] | inhibition at 2 µM (GSK3-beta) [%] | inhibition at 2 µM (PKA) [%] | inhibition at 2 µM (Src) [%] | SMILES
0-25% | 0 to 25 | 0 to 25 | 26 to 50 | 76 to 100 | 0 to 25 | 0 to 25 | 0 to 25 | CC(C)(C)c1cc(C(=O)N2CCNC(=O)CC2)c(NC(=O)Nc2ccc(Oc3ccncc3)cc2)s1 [Example 4, 1-(5-tert-Butyl-3-(5-oxo-[1,4]diazepane-1-carbonyl)thiophen-2-yl)-3-(4-(pyridin-4-yloxy)phenyl)urea]
0-25% | 0 to 25 | 0 to 25 | 0 to 25 | 76 to 100 | 0 to 25 | 0 to 25 | 0 to 25 | CC(C)(C)c1cc(C(=O)N2CCNC(=O)C2)c(NC(=O)Nc2ccc(Oc3ccncc3)cc2)s1 [Example 2, 1-(5-tert-Butyl-3-(3-oxo-piperazine-1-carbonyl)thiophen-2-yl)-3-(4-(pyridin-4-yloxy)phenyl)urea]
0-25% | 0 to 25 | 0 to 25 | 0 to 25 | 76 to 100 | 0 to 25 | 0 to 25 | 0 to 25 | CC(C)(C)c1cc(C(=O)N2CCNS(=O)(=O)CC2)c(NC(=O)Nc2ccc(Oc3ccncc3)cc2)s1 [Example 1, 1-(5-tert-Butyl-3-(1,1-dioxo-1λ^6-[1,2,5]thiadiazepane-5-carbonyl)thiophen-2-yl)-3-(4-(pyridin-4-yloxy)phenyl)urea]

Reference: US7612200B2, “Inhibitors of protein kinases” (Locus Pharmaceuticals, Inc., priority 2004, dated 2009)
